Test [1] deals with RKO (RKOp27) human colon adenocarcinoma cells. In words: Alamar Blue cell viability assay, anti-proliferative/cytotoxic activity on proliferating (uninduced) RKO p27 cells. In kind it is cell-based. The following applies: RKOp27, 72 h, proliferating cells without inducer Ponasterone A. As to the method: The anti-proliferative/cytotoxic activity of the compounds described herein, can be tested on subclones of RKO (RKOp27) human colon adenocarcinoma cells (Schmidt et al., Oncogene 19, 2423-2429; 2000) using the Alamar Blue cell viability assay (described in O'Brien et al. Eur J Biochem 267, 5421-5426, 2000). The compounds are dissolved as 20 mM solutions in dimethylsulfoxide (DMSO) and subsequently diluted in semi-logarithmic steps. DMSO dilutions are further diluted 1:100 into Dulbecco's modified Eagle's medium (DMEM) containing 10% fetal calf serum to a final concentration twice as much as the final concentration in the test. RKO subclones are seeded into 96 well flat bottom plates at a density of 4000 cells per well in a volume of 50 μl per well. 24 hours after seeding the 50 μl each of the compound dilutions in DMEM medium are added into each well of the 96 Well plate. Each compound dilution is tested as quadruplicates. Wells containing untreated control cells are filled with 50 μl DMEM medium containing 1% DMSO. The cells are then incubated with the substances for 72 hours at 37° C. in a humidified atmosphere containing 5% carbon dioxide. To determine the viability of the cells, 10 μl of an Alamar Blue solution (Biosource) are added and the fluorescence is measured at an extinction of 544 nm and an emission of 590 nm. For the calculation of the cell viability the emission value from untreated cells is set as 100% viability and the emission rates of treated cells are set in relation to the values of untreated cells. Viabilities are expressed as % values.
The corresponding IC50 values of the compounds for anti-proliferative/cytotoxic activity are determined from the concentration-effect curves.
Representative IC50 values for anti-proliferation/cytotoxicity determined in the mentioned assay follow from the following table A, in which the numbers of the compound correspond to the numbers of the examples.

For test [2], the system named is RKOp27 colon adenocarcinoma cells arrested by expression of ectopic p27Kip1. In words: Alamar Blue cell viability assay on RKO p27 cells arrested by Ponasterone A induced p27Kip1 (cell cycle specific mode of action). In kind it is cell-based. The following applies: Homo sapiens, 72 hours, cells arrested by p27Kip1 induced with 10 μM Ponasterone A. On the procedure: To determine the cell cycle specific mode of action, subclones of RKO colon adenocarcinoma cells (RKOp27 or RKOp21 as described by Schmidt et al. in Oncogene 19, 2423-2429; 2000) are seeded into 96 well flat bottom plates at a density of 16000 cells per well in a volume of 50 μl per well in DMEM growth medium with 10% FCS containing 10 μM Ponasterone A. 24 hours after seeding the 50 μl each of the compound dilutions in DMEM medium are added into each well of the 96 Well plate. Each compound dilution is tested as quadruplicates. Wells containing untreated control cells are filled with 50 μl DMEM medium containing 1% DMSO. The cells are then incubated with the substances for 72 hours at 37° C. in a humidified atmosphere containing 5% carbon dioxide. To determine the viability of the cells, 10 μl of an Alamar Blue solution (Biosource) are added and the fluorescence was measured at an extinction of 544 nm and an emission of 590 nm. For the calculation of the cell viability the emission value from untreated cells is set as 100% viability and the emission rates of treated cells are set in relation to the values of untreated cells. Viabilities are expressed as % values. Viability is compared of proliferating cells grown in the absence of the inducer Ponasterone A, versus viability of cells arrested by the expression of ectopic p27Kip1 induced by Ponasterone A.

As for `COc1ccccc1CCC(=O)Nc1sc2c(c1C#N)CCN(C(=O)OCCn1ccnc1C)C2` [Example 124, 3-Cyano-2-[3-(2-methoxy-phenyl)-propanoylamino]-4,7-dihydro-5H-thieno[2,3-c]pyridine-6-carboxylic acid 2-(2-methyl-imidazol-1-yl)-ethyl ester], the figures for the IC50 in test [1] and in test [2] were at most 300 nM and at least 10000 nM, respectively.
In the case of `COc1ccccc1CCC(=O)Nc1sc2c(c1C#N)CCN(C(=O)OCc1nccn1C)C2` [Example 122, 3-Cyano-2-[3-(2-methoxy-phenyl)-propanoylamino]-4,7-dihydro-5H-thieno[2,3-c]pyridine-6-carboxylic acid 1-methyl-1H-imidazol-2-ylmethyl ester], the IC50 in test [1] was at most 300 nM; in test [2], at least 10000 nM.
With `CCOc1ccccc1CCC(=O)Nc1sc2c(c1C#N)CCN(C(=O)OCC(=O)OC)C2` [Example 190, 3-Cyano-2-[3-(2-ethoxy-phenyl)-propanoylamino]-4,7-dihydro-5H-thieno[2,3-c]pyridine-6-carboxylic acid methoxycarbonylmethyl ester], the IC50 in test [1] was at most 300 nM; in test [2] it was over 100000 nM.
In the case of `CCOC(=O)N1CCc2c(sc(NC(=O)CC(C)c3ccccc3OC)c2C#N)C1` (racemic) [Example 49, 3-Cyano-2-[(RS)-3-(2-methoxy-phenyl)-butanoylamino]-4,7-dihydro-5H-thieno[2,3-c]pyridine-6-carboxylic acid ethyl ester], the figures for the IC50 in test [1] and in test [2] were at most 300 nM and over 100000 nM, respectively.
The corresponding values for `CCOC(=O)N1CCc2c(sc(NC(=O)CCc3cccc(OCC)c3)c2C#N)C1` [Example 8, 3-Cyano-2-[3-(3-ethoxy-phenyl)-propanoylamino]-4,7-dihydro-5H-thieno[2,3-c]pyridine-6-carboxylic acid ethyl ester] are 300 to 2000 nM and over 100000 nM.
In the case of `COc1cccc(CCC(=O)Nc2sc3c(c2C#N)CCN(C(=O)OCc2nccn2C)C3)c1` [Example 119, 3-Cyano-2-[3-(3-methoxy-phenyl)-propanoylamino]-4,7-dihydro-5H-thieno[2,3-c]pyridine-6-carboxylic acid 1-methyl-1H-imidazol-2-ylmethyl ester], the values for the IC50 in test [1] and in test [2] were at most 300 nM and over 100000 nM, respectively.
The corresponding values for `CCOC(=O)N1CCc2c(sc(NC(=O)CCc3ccccc3OC)c2C#N)C1` [Example 3, 3-Cyano-2-[3-(2-methoxy-phenyl)-propanoylamino]-4,7-dihydro-5H-thieno[2,3-c]pyridine-6-carboxylic acid ethyl ester] are 300 to 2000 nM and over 100000 nM.
The corresponding values for `COc1ccccc1CCC(=O)Nc1sc2c(c1C#N)CCN(C(=O)OCC1COC(C)(C)O1)C2` (stereo not drawn) [Example 30, 3-Cyano-2-[3-(2-methoxy-phenyl)-propanoylamino]-4,7-dihydro-5H-thieno[2,3-c]pyridine-6-carboxylic acid 2,2-dimethyl-[1,3]dioxolan-4-ylmethyl ester] are at most 300 nM and over 100000 nM.
The corresponding values for `COc1ccc(C)cc1CCC(=O)Nc1sc2c(c1C#N)CCN(C(=O)OCCc1ccccn1)C2` [Example 48, 3-Cyano-2-[3-(2-methoxy-5-methyl-phenyl)-propanoylamino]-4,7-dihydro-5H-thieno[2,3-c]pyridine-6-carboxylic acid 2-pyridin-2-yl-ethyl ester] are 300 to 2000 nM and over 100000 nM.
As for `COc1cccc(CCC(=O)Nc2sc3c(c2C#N)CCN(C(=O)OCc2ccncc2)C3)c1` [Example 37, 3-Cyano-2-[3-(3-methoxy-phenyl)-propanoylamino]-4,7-dihydro-5H-thieno[2,3-c]pyridine-6-carboxylic acid pyridin-4-ylmethyl ester], the IC50 in test [1] was at most 300 nM; in test [2], over 100000 nM.
For `CCOC(=O)N1CCc2c(sc(NC(=O)CCc3cc(C)ccc3OC)c2C#N)C1` [Example 17, 3-Cyano-2-[3-(2-methoxy-5-methyl-phenyl)-propanoylamino]-4,7-dihydro-5H-thieno[2,3-c]pyridine-6-carboxylic acid ethyl ester], the IC50 in test [1] was at most 300 nM; in test [2], over 100000 nM.
The corresponding values for `COc1ccccc1CCC(=O)Nc1sc2c(c1C#N)CCN(C(=O)OCCc1ccccn1)C2` [Example 25, 3-Cyano-2-[3-(2-methoxy-phenyl)-propanoylamino]-4,7-dihydro-5H-thieno[2,3-c]pyridine-6-carboxylic acid 2-pyridin-2-yl-ethyl ester] are at most 300 nM and over 100000 nM.
The corresponding values for `COc1ccc(OC)c(CCC(=O)Nc2sc3c(c2C#N)CCN(C(=O)OCc2cccnc2)C3)c1` [Example 50, 3-Cyano-2-[3-(2,5-dimethoxy-phenyl)-propanoylamino]-4,7-dihydro-5H-thieno[2,3-c]pyridine-6-carboxylic acid pyridin-3-ylmethyl ester] are 300 to 2000 nM and over 100000 nM.
Taken in the same sequence, the figures for `COc1cccc(CCC(=O)Nc2sc3c(c2C#N)CCN(C(=O)OCCc2ccccn2)C3)c1` [Example 38, 3-Cyano-2-[3-(3-methoxy-phenyl)-propanoylamino]-4,7-dihydro-5H-thieno[2,3-c]pyridine-6-carboxylic acid 2-pyridin-2-yl-ethyl ester] were 300 to 2000 nM and over 100000 nM.
Turning to `CCOC(=O)N1CCc2c(sc(NC(=O)C3CC3c3cc(C)ccc3OC)c2C#N)C1` (stereo not drawn) [Example 54, 3-Cyano-2-({1-[2-(2-methoxy-5-methyl-phenyl)-cyclopropyl]-methanoyl}-amino)-4,7-dihydro-5H-thieno[2,3-c]pyridine-6-carboxylic acid ethyl ester], the values for the IC50 in test [1] and in test [2] were 300 to 2000 nM and over 100000 nM, respectively.
As for `COc1ccc(C)cc1CCC(=O)Nc1sc2c(c1C#N)CCN(C(=O)OCCc1ccncc1)C2` [Example 106, 3-Cyano-2-[3-(2-methoxy-5-methyl-phenyl)-propanoylamino]-4,7-dihydro-5H-thieno[2,3-c]pyridine-6-carboxylic acid 2-pyridin-4-yl-ethyl ester], the results for the IC50 in test [1] and in test [2] were at most 300 nM and over 100000 nM, respectively.
The corresponding values for `CCOC(=O)N1CCc2c(sc(NC(=O)CCc3ccc(OCC)cc3)c2C#N)C1` [Example 5, 3-Cyano-2-[3-(4-ethoxy-phenyl)-propanoylamino]-4,7-dihydro-5H-thieno[2,3-c]pyridine-6-carboxylic acid ethyl ester] are at most 300 nM and over 100000 nM.
The corresponding values for `CCOC(=O)N1CCc2c(sc(NC(=O)CCc3cc(Br)ccc3OC)c2C#N)C1` [Example 15, 2-[3-(5-Bromo-2-methoxy-phenyl)-propanoylamino]-3-cyano-4,7-dihydro-5H-thieno[2,3-c]pyridine-6-carboxylic acid ethyl ester] are at most 300 nM and over 100000 nM.
Taken in the same sequence, the figures for `COc1ccccc1CCC(=O)Nc1sc2c(c1C#N)CCN(C(=O)OCCc1ccncc1)C2` [Example 62, 3-Cyano-2-[3-(2-methoxy-phenyl)-propanoylamino]-4,7-dihydro-5H-thieno[2,3-c]pyridine-6-carboxylic acid 2-pyridin-4-yl-ethyl ester] were at most 300 nM and over 100000 nM.
In the case of `COc1ccc(C)cc1CCC(=O)Nc1sc2c(c1C#N)CCN(C(=O)OCCn1ccnc1)C2` [Example 132, 3-Cyano-2-[3-(2-methoxy-5-methyl-phenyl)-propanoylamino]-4,7-dihydro-5H-thieno[2,3-c]pyridine-6-carboxylic acid 2-imidazol-1-yl-ethyl ester], the IC50 in test [1] is at most 300 nM; in test [2], at least 40000 nM.
Taken in the same sequence, the figures for `CCOC(=O)N1CCc2c(sc(NC(=O)CCc3cc(OC)ccc3OC)c2C#N)C1` [Example 7, 3-Cyano-2-[3-(2,5-dimethoxy-phenyl)-propanoylamino]-4,7-dihydro-5H-thieno[2,3-c]pyridine-6-carboxylic acid ethyl ester] were 300 to 2000 nM and over 100000 nM.

The record behind these values is patent US7741488B2, “Tetrahydropyridothiophenes as antiproliferative agents for the treatment of cancer” (4SC AG, priority 2005, dated 2010).
